# Assay results published in publication PMC4490944 (Journal of immunology (Baltimore, Md. : 1950), 2015).
# No end group written: not given here. Alexa 488 = Alexa-488 fluorophore (from tetrafluorophenyl ester) on the Lys side-chain amine
# How the values were obtained:
# [1] = target: T1, HLA-DR1 (DR1) (DRA*0101/DRB1*010101) (Homo sapiens, UniProt P01903+P01911, A100R/D57E/F55L/F60I/F76Y/I96L/L162R/M171V/P40L/Q125E/R42F/V115G/Y59C); test: MHC II stabilization assay; conditions: 1 μM DR1-W1A with 1 μM DM, or 1 μM DM and 50 μM W1A, 37 °C 1 hour, pH 5.5, Superdex200; at least four independent experiments
# MHC II = conditions: cited from earlier work
# [2] = target: T1, HLA-DR1 (DR1) (DRA*0101/DRB1*010101); test: Numerical modeling; type: binding; conditions: best fit value, Scheme V; DM-MHC resolves into inactive MHC II in the absence of peptides; kept the same for HA and CLIP; 0.4 μM DR1, 0.4 μM DM
# [3] = Peptide occupancy, quantitative amino acid analysis of acid-eluted material; conditions: control DM sample
# [4] = target: DM-MHC II intermediate (complex of HLA-DM with active peptide-free DR1) (human) (UniProt P28067); test: fluorescence polarisation
molecule,measurement,setting,value
Ac-GSDARFLRGYHQYA [W1A],inhibition of aggregation of DR1 loaded with weakly binding peptide W1A,[1],Excess of peptides but not DM could inhibit the aggregation of MHC II
same,susceptibility to DM-mediated peptide release,MHC II; DR1-bound,extremely susceptible to DM-mediated peptide release
Ac-VSKMRMATPLLMQ [CLIP],k5,[2],0.36 min⁻¹
same,intrinsic and DM-catalyzed dissociation half-life,MHC II; as previously reported,~ 5 hours
DM: soluble extracellular domains of recombinant DM expressed in Drosophila S2 cells,amino acid content of acid-eluted material,[3],3.46 nmol amino acid per 50 nmol protein
Ac-VSK(Alexa 488)MRMATPLLMQ [Alexa488-labeled CLIP peptide (Ac-…)],k6 (another combination that gives the same fit),[4],2.85 µM⁻¹ min⁻¹
same,k6 (peptide binds the intermediate DM-MHC to give DM-MHCpep'),[4],5.21 µM⁻¹ min⁻¹
same,k-6 (peptide leaves DM-MHCpep'),[4],0.022 min⁻¹
